Assay results published in patent publication US7332468B2, “8-tetradecenal as fragrance and flavoring substance” (Symrise GmbH & Co. KG, priority 2001, dated 2008).

What was measured:
[1] = Cadwallader et al. 1999; cited from earlier work
[2] = Boelens, Van Gemert 1987; cited from earlier work
[3] = Determination of the odor threshold values in water
Procedure: The odor threshold values in water were determined in the conventional manner for (Z)-8- and (E)-8-tetradecenal and for two comparison substances.

[4] = Odor description by a panel of expert flavoring specialists, ranking scale 0-4; parameters: key to Green-herby / Honey-like (beeswax) / Fresh, fizzy / Citrus-like / Fruity / Flowery / Of orange peel / Of pith / Sweet / Fatty / Waxy: 0: absent; 1: weak; 2: moderate; 3: strong; 4: very strong; conditions: odor ranking 0-4, expert panel
Procedure: The substances (Z)-8- and (E)-8-tetradecenal according to the invention were tested by a panel of expert flavoring specialists in the conventional manner. The experts assessed the relevant odors on the basis of the procedure in the article entitled “Organoleptic properties of aliphatic aldehydes”, Boelens, Mans H.; Van Gemert, Leo J.; Perfum. Flavor. (1987), 12(5), 31-7, 40, 43, which has already been cited, i.e. they quantified the odors of the particular substance on the basis of an assessment scale with rankings of 0-4. The rankings have the following meanings: • 0: absent • 1: weak • 2: moderate • 3: strong • 4: very strong

[5] = Modification of a conventional orange flavor composition; conditions: based on the total mass of the composition
Text: A conventional flavor composition (composition A) was compared with a flavor composition according to the invention (composition B).

In the case of `CCCCCCCCCCC/C=C/C=O` [(E)-2-tetradecenal], the odor description [1] is listed as “fatty, waxy, cheesy”, the citrus aspect [2] is listed as “weak” and the fatty aspect [2] is listed as “strong”.
With `CCCCC/C=C/CCCCCCC=O` [8-(E)-tetradecenal, (E)-8-tetradecenal] the Odor threshold value ([3]; in water) was 1.24 ppb, the Chemical [4] was 2-3 and the Citrus-like [4] was 1-2. The Fatty [4] was 4, the Flowery [4] was 0-1 and the “Fresh, fizzy” value [4] was 0. For the same compound, the Fruity [4] was 0, the Green-herby [4] was 1 and the “Honey-like (beeswax)” value [4] was 0. The Of orange peel [4] was 0, the Of pith [4] was 1 and the Sweet [4] was 1-2. For the same compound, the Waxy [4] was 4.
In the case of `CCCCCC/C=C\CCCCCC=O` [7-(Z)-tetradecenal, (Z)-7-tetradecenal], the “usable sensory properties compared with (Z)-8-tetradecenal” value [3] is reported as “do not have any usable sensory properties”, the Odor threshold value ([3]; in water) is reported as 2.60 ppb and the “odor threshold compared with that of (Z)-8-tetradecenal” value ([3]; in water) is reported as “approximately two orders of magnitude higher”.
In the case of `CCCCCCC/C=C/C=O` [trans-2-decenal], the citrus aspect [2] is listed as “noteworthy”.
For `CCCCC/C=C\CCCCCCC=O` [8-(Z)-tetradecenal, (Z)-8-tetradecenal], the Odor threshold value ([3]; in water) was 0.009 ppb, the “odor threshold value lower than that of (Z)-7-tetradecenal and (Z)-9-tetradecenal” value ([3]; in water) was “approximately 2 orders of magnitude” and the Chemical [4] was 0-1. It also gave a Citrus-like [4] of 4, a Fatty [4] of 1 and a Flowery [4] of 2. For the same compound, the “Fresh, fizzy” value [4] was 4, the Fruity [4] was 1 and the Green-herby [4] was 0. For the same compound, the “Honey-like (beeswax)” value [4] was 2, the Of orange peel [4] was 4 and the Of pith [4] was 4. The Sweet [4] was 3, the Waxy [4] was 1-2 and the “proportion sufficient to make a conventional orange flavor fresher, juicier, more typical and more harmonious” value [5] was 0.001 % (m/m).
For `CCCCC/C=C/CCC=O` [(E)-4-decenal], the odor description [1] is listed as “citrus peel”.
For `CCCCC/C=C/C=O` [trans-2-octenal], the citrus aspect [2] is given as “noteworthy”.
With `CCCC/C=C\CCCCCCCC=O` [9-(Z)-tetradecenal, (Z)-9-tetradecenal] the “usable sensory properties compared with (Z)-8-tetradecenal” value [3] was “do not have any usable sensory properties”, the Odor threshold value ([3]; in water) was 1.44 ppb and the “odor threshold compared with that of (Z)-8-tetradecenal” value ([3]; in water) was “approximately two orders of magnitude higher”.
In the case of `CCCCCCCC/C=C/C=O` [trans-2-undecenal], the citrus aspect [2] is listed as “noteworthy”.
